# Target: T1, recombinant human 5-HT6 receptor (Homo sapiens, UniProt P50406)
# T1 construct: expressed in transfected cells; membranes used
# Test: Radioligand binding studies, competition for [3H]LSD binding in HEK293 cell membranes
# Conditions: [3H]LSD (5 nM), membranes of HEK293 cells stably expressing recombinant human 5-HT6 receptor, pH 7.4, 37° C., 60 min; read-out: 5-HT6 affinity values (pKi) (converted)
# Description: The binding activity of compounds of this invention in vitro was determined as follows. Duplicate determinations of ligand affinity are made by competing for binding of [^3H]LSD in cell membranes derived from HEK293 cells stably expressing recombinant human 5-HT6 receptor.
# All determinations were made in assay buffer containing 50 mM Tris-HCl, 10 mM MgSO4, 0.5 mM EDTA, 1 mM ascorbic acid, pH 7.4 at 37° C., in a 250 microliter reaction volume. Assay tubes containing [^3H] LSD (5 nM), competing ligand, and membrane were incubated in a shaking water bath for 60 min. at 37° C., filtered onto Packard GF-B plates (pre-soaked with 0.3% PEI) using a Packard 96 well cell harvester and washed 3 times in ice cold 50 mM Tris-HCl. Bound [^3H] LSD was determined as radioactive counts per minute using Packard TopCount.
# Displacement of [3H]LSD from the binding sites was quantified by fitting concentration-binding data to a 4-parameter logistic equation:
# [formula] where Hill is the Hill slope, [ligand] is the concentration of competing radioligand and IC50 is the concentration of radioligand producing half-maximal specific binding of radioligand. The specific binding window is the difference between the Bmax and the basal parameters.
# T1 sequence (P50406 whole entry): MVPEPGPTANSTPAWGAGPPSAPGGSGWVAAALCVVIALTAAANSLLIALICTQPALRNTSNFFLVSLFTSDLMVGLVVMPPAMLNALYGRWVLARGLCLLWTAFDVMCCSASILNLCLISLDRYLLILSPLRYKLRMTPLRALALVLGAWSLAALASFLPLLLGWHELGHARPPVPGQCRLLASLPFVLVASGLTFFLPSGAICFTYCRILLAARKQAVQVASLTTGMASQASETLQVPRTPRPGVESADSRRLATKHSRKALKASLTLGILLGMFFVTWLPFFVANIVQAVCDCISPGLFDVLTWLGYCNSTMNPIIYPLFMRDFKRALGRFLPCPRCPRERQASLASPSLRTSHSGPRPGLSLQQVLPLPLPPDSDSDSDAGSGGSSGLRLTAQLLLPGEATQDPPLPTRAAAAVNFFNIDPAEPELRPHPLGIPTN
row,Ki [nM],SMILES
1,3.98,O=S(=O)(c1ccccc1Cl)c1c[nH]c2c(OCCN3CCCC3)cccc12 [3-(2-Chloro-benzenesulfonyl)-7-(2-pyrrolidin-1-yl-ethoxy)-1H-indole]
2,20,"O=S(=O)(c1ccc(Cl)c(Cl)c1)c1c[nH]c2c(OCCN3CCCC3)cccc12 [3-(3,4-Dichloro-benzenesulfonyl)-7-(2-pyrrolidin-1-yl-ethoxy)-1H-indole]"
3,5.01,O=S(=O)(c1cccc(Cl)c1)c1c[nH]c2c(OCCN3CCCC3)cccc12 [3-(3-Chloro-benzenesulfonyl)-7-(2-pyrrolidin-1-yl-ethoxy)-1H-indole]
4,20,O=S(=O)(c1ccccc1)c1c[nH]c2c(OCCN3CCCC3)cccc12 [3-Benzenesulfonyl-7-(2-pyrrolidin-1-yl-ethoxy)-1H-indole]

# From patent publication US7084169B2, “Aminoalkoxyindoles and methods of use” (Roche Palo Alto LLC, priority 2002, dated 2006)
